Results: article PMC11784145, “Efficacy and in vitro pharmacological assessment of novel N-hydroxypyridinediones as hepatitis B virus ribonuclease H inhibitors” (Antimicrobial Agents and Chemotherapy, 2024)

What was measured:
[1] = tested on: HBV replication (HBV plus-polarity DNA strand); experiment: HBV replication inhibition, strand preferential qPCR in hepDES19 cells; type: cell-based, hepatitis B virus; conditions: for EC50: 72 h exposure, HBV plus-polarity strand suppression, highest concentration tested 100 µM, mean ± SD, read-out: HepDES19 EC50
Method: HBV replication inhibition was measured in hepDES19 cells following 72 h compound exposure without compound replenishment. EC50 values were determined by HBV plus-polarity strand suppression using a strand preferential qPCR assay, as described previously ([28]). Three or more replicate values were obtained on different days.

[2] = Solubility limit, turbidimetric assay; type: physicochemical; conditions: for Average Sol (solubility limit) / Sol 1 (solubility limit) / Sol 2 (solubility limit) / Sol 3 (solubility limit) / Sol 4 (solubility limit): upper limit 200 µM
Method: Solubility limits were determined by a turbidimetric assay, as described ([27]), with the solubility limit being defined as the compound concentration where light scattering began to rise. Two or more replicate assays were performed for each compound at each pH on different days.

[3] = Parallel artificial membrane permeability assay (PAMPA); type: in vitro ADME; conditions: for Papp 3 (PAMPA): pH 7.4, replicate 3; for Papp 4 (PAMPA): pH 7.4, replicate 4
Method: Compound Papp values were determined by normalizing the experimental compound absorbance to the compounds’ absorbances at equilibrium, membrane porosity, buffer volume, and time (s). Two or more replicate assays were obtained on separate days for each pH.

Microsome stability = type: in vitro ADME, human
Method: Human liver microsomes (gender pooled, 50 individuals) were purchased from BioIVT and stored at −80°C until use. […] Reactions were initiated by addition of 1.2 mM NADPH. […] Microsomal proteins were pelleted at 4,000 × g and the supernatant was analyzed via LCMS/MS. […] The ln percent remaining values were plotted against time, the negative slope was taken (k), and compound half-life (t1/2) was determined using ln2/k. Intrinsic clearance (Clint [µL/min/mg]) was calculated by (V × ln2)/t1/2, where V is the incubation volume (µL) divided by the protein concentration in the reaction (mg) ([31]).

HepDES19 cells = conditions: read-out: HepDES19 CC50; 72 h, MTS; highest concentration tested 100 µM; mean ± SD
Method: HepDES19 cells were plated on 96-well tissue culture-treated plates (Greiner) at 1.0 × 10^4 cells per well and incubated for 48 h. Cells were treated with titrated concentrations of compound or 1% DMSO vehicle for 72 h, and cellular viability was measured by 3-(4,5-dimethylthiazol-2-yl)−5-(3-carboxymethoxyphenyl)−2-(4-sulfophenyl)−2H-tetrazolium (MTS) assays, as described previously ([20]). […] Three or more replicate assays were done on different days.

[4] = pH 5 (fed simulated intestinal fluid)
[5] = pH 6.5 (fasted simulated intestinal fluid)

SMILES | HepDES19 SI (CC50/EC50) [1] | EC50 [1] [µM] | Average Sol (solubility limit) [2, 4] [µM] | Sol 1 (solubility limit) ([2]; pH 5, replicate 1) [µM] | Sol 2 (solubility limit) ([2]; pH 5, replicate 2) [µM] | Average Sol (solubility limit) [2, 5] [µM] | Sol 1 (solubility limit) ([2]; pH 6.5, replicate 1) [µM] | Sol 2 (solubility limit) ([2]; pH 6.5, replicate 2) [µM] | Average Sol (solubility limit) ([2]; pH 7.4 (DMEM-F12 with 10% FBS)) [µM] | Sol 1 (solubility limit) ([2]; pH 7.4, replicate 1) [µM] | Sol 2 (solubility limit) ([2]; pH 7.4, replicate 2) [µM] | Avg Papp (PAMPA) ([3]; FeSSIF pH 5) [×10⁻⁶ cm/s] | Interpretation (PAMPA Papp) ([3]; FeSSIF pH 5) | Papp 1 (PAMPA) ([3]; FeSSIF pH 5, replicate 1) [×10⁻⁶ cm/s] | Papp 2 (PAMPA) ([3]; FeSSIF pH 5, replicate 2) [×10⁻⁶ cm/s] | Avg Papp (PAMPA) ([3]; pH 7.4) [×10⁻⁶ cm/s] | Interpretation (PAMPA Papp) ([3]; pH 7.4) | Papp 1 (PAMPA) ([3]; pH 7.4, replicate 1) [×10⁻⁶ cm/s] | Papp 2 (PAMPA) ([3]; pH 7.4, replicate 2) [×10⁻⁶ cm/s] | CC50 (HepDES19 cells) [µM] | further results
CC(=NOCc1ccc(C(F)(F)F)cc1)c1c(C)cc(=O)n(O)c1O [Compound 1235] | 26.3 | 1.87 ± 0.351 | > 200 | > 200 | > 200 | 167 | 100 | > 200 | > 200 | > 200 | > 200 | 18 | H (H: Papp > 1*10-6) | 22.7 | 13.2 | 3.34 | H (H: Papp > 1*10-6) | 2.29 | 4.4 | 49.2 ± 19.2 | Sol 3 (solubility limit) ([2]; pH 6.5, replicate 3): > 200 µM; Clearance (intrinsic clearance, Clint) (Microsome stability; human, microsomes): 5.48 µL/min/mg; Half-life (Microsome stability; human, microsomes): >30 min
COc1ccc(CON=C(C)c2c(C)cc(=O)n(O)c2O)cc1OC [Compound 1669] | 80.6 | 1.13 ± 0.955 | > 200 | > 200 | > 200 | > 200 | > 200 | > 200 | > 200 | > 200 | > 200 | 56.7 | H (H: Papp > 1*10-6) | 57.9 | 55.5 | 2.12 | H (H: Papp > 1*10-6) | 2.03 | 2.2 | 91 ± 15.6 | –
CC(=NOCc1ccccc1C)c1c(C)cc(=O)n(O)c1O [Compound 1681] | 25.2 | 3.97 ± 1.19 | > 200 | > 200 | > 200 | > 200 | > 200 | > 200 | 106 | 25 | 100 | 30 | H (H: Papp > 1*10-6) | 28.5 | 31.5 | 4.73 | H (H: Papp > 1*10-6) | 3.11 | 9.39 | > 100 | Sol 3 (solubility limit) ([2]; pH 7.4, replicate 3): > 200 µM; Sol 4 (solubility limit) ([2]; pH 7.4, replicate 4): 100 µM; Papp 3 (PAMPA) [3]: 4.69 ×10⁻⁶ cm/s; Papp 4 (PAMPA) [3]: 1.74 ×10⁻⁶ cm/s
CC(=NOCc1ccc(Br)cc1)c1c(C)cc(=O)n(O)c1O [Compound 1717] | 52.7 | 1.13 ± 0.186 | 100 | 100 | 100 | 50 | 50 | 50 | 138 | 50 | > 200 | – | – | – | – | 1.61 | H (H: Papp > 1*10-6) | 1.61 | 1.61 | 76.7 ± 30.3 | Solubility limit category [2, 5]: partially soluble (partially soluble (100–1 µM)); Sol 3 (solubility limit) ([2]; pH 6.5, replicate 3): 50 µM; Sol 3 (solubility limit) ([2]; pH 7.4, replicate 3): > 200 µM; Sol 4 (solubility limit) ([2]; pH 7.4, replicate 4): 100 µM
CC(=NOCc1ccccc1Br)c1c(C)cc(=O)n(O)c1O [Compound 1718] | 34.1 | 2 ± 1.63 | > 200 | > 200 | > 200 | 138 | 50 | 100 | 150 | 50 | > 200 | 43.6 | H (H: Papp > 1*10-6) | 37.3 | 50 | 3.22 | H (H: Papp > 1*10-6) | 3.31 | 3.07 | 80.8 ± 27.5 | Sol 3 (solubility limit) ([2]; pH 6.5, replicate 3): > 200 µM; Sol 4 (solubility limit) ([2]; pH 6.5, replicate 4): > 200 µM; Sol 3 (solubility limit) ([2]; pH 7.4, replicate 3): > 200 µM; Papp 3 (PAMPA) [3]: 3.29 ×10⁻⁶ cm/s
CC(=NOCc1ccc2ccccc2c1)c1c(C)cc(=O)n(O)c1O [Compound 1811] | 71.3 | 1.4 ± 1.19 | 50 | 50 | 50 | > 200 | > 200 | > 200 | 167 | 100 | > 200 | – | – | – | – | 3.57 | H (H: Papp > 1*10-6) | 1.71 | 3.97 | 64.3 ± 25.2 | Solubility limit category ([2]; pH 5.0 (fed simulated intestinal fluid)): partially soluble (partially soluble (100–1 µM)); Sol 3 (solubility limit) ([2]; pH 7.4, replicate 3): > 200 µM; Papp 3 (PAMPA) [3]: 4.02 ×10⁻⁶ cm/s; Papp 4 (PAMPA) [3]: 4.6 ×10⁻⁶ cm/s
CC(C)c1nc(CN(C)C(=O)N[C@H](C(=O)N[C@@H](Cc2ccccc2)C[C@H](O)[C@H](Cc2ccccc2)NC(=O)OCc2cncs2)C(C)C)cs1 [Ritonavir, ritonavir, reference compound] | – | – | – | – | – | – | – | – | – | – | – | – | – | – | – | – | – | – | – | – | half-life at 1 µM (Microsome stability; both sexes, human liver microsomes, 1 µM compound, 30 min, NADPH): 23.3 min; microsomal CLint at 1 µM (Microsome stability; both sexes, human liver microsomes, 1 µM compound, 30 min, NADPH, read-out: Clearance (intrinsic clearance, Clint)): 45.2 µL/min/mg
